Source: patent publication US20220273751A1, “GPCR HETEROMER INHIBITORS AND USES THEREOF” (GPCR THERAPEUTICS, INC., priority 2019, published 2022)
Where a SMILES comes first, the peptide text is derived from it. Bridges are numbered along the chain shown (N, C = ends). [ ]: non-standard residue; d: D form. The star is where a group is joined. 2Nal = N[C@@H](Cc1ccc2ccccc2c1)C(=O)O; Lys(iPr) = CC(C)NCCCC[C@H](N)C(=O)O; Benzoyl(4-F) = O=C(c1ccc(F)cc1)*; Cit = NC(=O)NCCC[C@H](N)C(=O)O

Legend:
CXCR4-ADRB2 heteromer [1] = biological target: T1, CXCR4-ADRB2 heteromer (Homo sapiens, UniProt P07550+P61073); assay: Calcium mobilization assay, HL-60 cells endogenously expressing CXCR4 and ADRB2; type: cell-based; settings: for decrease of IC50 of Ca2+ response upon co-treatment of carvedilol, HL-60: Carvedilol 10 μM
[2] = system: MDA-MB-231-CXCR4-ADRB2 cells; assay: MDA-MB-231-CXCR4-ADRB2 orthotopic xenograft, tumor growth; type: in vivo, mouse; settings: FIG. 22C; for suppression of tumor growth, single administration: once a day for 4 weeks
Method: The size of the tumors was calculated by converting the tumor size to 100 on the first day of drug administration (% tumor growth). […] Place the needle point in the pre-administration site (between the nipple 2 and 3) and move it to the right or left to make a wide subcutaneous pocket. The Matrigel Mixture (matrigel: cell suspension=50:50) is injected into the subcutaneous pocket. The animals are placed in a breeding box after confirming that the liquid is not spilled at the injection site. […] The day of drug treatment is defined as Day 1. […] The size of the tumor was calculated by converting the tumor size to 100 on the first day of drug administration.

A549-CXCR4-ADRB2 cells [3] = assay: Proliferation assay (Prestoblue), A549-CXCR4-ADRB2 cells; settings: serum free, 72 hr; for block of CXCL12 effect on cell proliferation: FIGS. 18A-18E, 10 μM (AMD070 1 μM)
Method: A549 parent cells or A549-CXCR4-ADRB2 cells were plated at a density of 1×10^4 cells/well in 96-well plates and incubated in culture medium for 24 hr to allow adherence. […] At the end of incubation, cell proliferation was assessed by using Prestoblue Cell Viability Reagent (Thermo Fisher Scientific) according to the manufacture's instruction.
A549 double negative (RLuc-lucP) or A549-CXCR4-ADRB2 cell lines overexpressing both CXCR4 and ADRB2 plated at a density of 1×10^4 cells/well in 96-well plates and incubated in culture medium for 24 hr to allow adherence. After washing, Serum free RPMI1640±SDF-1α with or without indicated drugs were added and the cells were incubated for 72 hr (96 hr post seeding) at 37° C., 5% CO2. At the end of incubation, cell proliferation was assessed by using Prestoblue Cell Viability Reagent (Thermo Fisher Scientific, Cat. A13262) according to the manufacture's instruction. Briefly, cells were incubated in 1× Prestoblue Cell Viability Reagent for 1 hr at 37° C. Fluorescence was measured at 560 nm excitation and 590 nm emission using Varioskan LUX multimode microplate reader (Thermo Fisher Scientific). The amount of fluorescence detected was proportional to the number of cells within a well. Results are expressed as mean ratio (FluorescenceDrug/FluorescenceVehicle only) from triplicate wells±SEM.

CXCR4-ADRB2 heteromer [4] = biological target: T1, CXCR4-ADRB2 heteromer; assay: Calcium mobilization assay, MDA-MB-231 cells co-transduced with CXCR4 and ADRB2; type: cell-based; settings: for decrease of IC50 of Ca2+ response upon co-administration of Carvedilol / IC50: Table 4; for decrease of IC50 of Ca2+ response upon co-administration of Carvedilol: Carvedilol 600 nM; for IC50: IC50 of Ca2+ response
Method: The next day, the cells were co-transduced with 10 MOI of CXCR4 and 30 MOI of GPCRx. […] Calcium mobilizations were measured using FlexStation 3 Multi-Mode Microplate Reader. The results were normalized for base-line activity. Calcium mobilizations were quantified by calculating the area-under-the-curve (AUC) of each graph.
MDA-MB-231 cells were transduced with adenoviruses encoding CXCR4 only, or CXCR4 and ADRB2.
Calcium mobilization was measured using FlexStation3, and the resulting IC50 values of calcium response were calculated using GraphPad Prism software.
The next day, cells were co-transduced with 10 MOI of CXCR4 and 30 MOI of GPCRx. Adenoviruses encoding HA-VC were used to adjust the total amount of adenoviruses transduced. After 2 days, cells were treated with antagonist with indicated amounts and incubated with Cal 6 (FLIPR® Calcium 6 Assay Kit by Molecular Devices, Cat. R8191) for 2 hr. […] Calcium mobilization was measured using FlexStation 3 Multi-Mode Microplate Reader (Molecular Devices, Sunnyvale, Calif., USA). The results were normalized for base-line activity. […] Data represent three independent experiments (mean±SEM).

CXCR4-ADRB2 heteromer [5] = biological target: T1, CXCR4-ADRB2 heteromer; assay: Calcium mobilization assay, U937 cells endogenously expressing CXCR4 and ADRB2; type: cell-based
CXCR4 = biological target: T2, CXCR4 (Homo sapiens, UniProt P61073); assay: Calcium mobilization assay, MDA-MB-231 cells transduced with CXCR4 only; type: cell-based
T2 construct: expressed in transfected cells; host or cells: MDA-MB-231 (adenoviral transduction)
Method: The next day, cells were co-transduced with 10 MOI of CXCR4 and 30 MOI of GPCRx. Adenoviruses encoding HA-VC were used to adjust the total amount of adenoviruses transduced. After 2 days, cells were treated with antagonist with indicated amounts and incubated with Cal 6 (FLIPR® Calcium 6 Assay Kit by Molecular Devices, Cat. R8191) for 2 hr. […] The results were normalized for base-line activity. […] Data represent three independent experiments (mean±SEM).

[6] = system: patient derived cells (PDCs) from glioblastoma; assay: Survival of patient derived cells (ATPlite); type: cell-based, human; settings: PDC expressing CXCR4 and ADRB2; 7 days
Method: Single cell suspensions of resected and dissociated glioblastoma tissues from patients were prepared (provided by Samsung Seoul hospital in Seoul, Korea). These cells were cultured under conditions optimal for propagation and non-differentiation of normal neuronal stem cell. Media were composed serum free Neurobasal media supplemented with basic FGF and EGF.
The effects of GPCRx antagonist on the survival of patient derived cells (PDCs) were assessed using ATPlite (PerkinElmer, Cat. No. 6016739 reagent). ATPlite is an Adenosine Triphospate monitoring system based on firefly luciferase. This luminescence assay is the alternative to colorimetric, fluorometric and radioisotopic assays for the quantitative evaluation of proliferation and cytotoxicity of cultured mammalian cells. Cells were seeded in 384-well plate at 500 cells/well in 40 μL culture media. After overnight growth, the cells were cultured for 7 days in the presence of several dose of GPCRx antagonist or DMSO alone. After a 7-day incubation, 15 μL ATPlite was added into the each well and the plate were shaken for 5 minutes in an orbital shaker at 700 rpm. The luminescent signal was detected within 30 minutes at PerkinElmer TopCount detection instrument. The cell viability was calculated using the equation: Cell viability (%)=(OD of antagonist treatment/OD of DMSO only treatment)×100%.

A549-CXCR4-ADRB2 cells [7] = assay: A549-CXCR4-ADRB2 xenograft, tumor growth; type: in vivo, mouse; settings: 10 mpk; in only 2 doses
Method: The antitumor effect in mice transplanted with A549 cells containing CXCR4-ADRB2 by stably overexpressing both CXCR4 and ADRB2 (“A549-CXCR4-ADRB2 cells”) was evaluated using CXCR4 inhibitors currently under development or on the market. A549-CXCR4-ADRB2 cells (1×10^7 cell/head) were injected subcutaneously in nude mice. […]. The CXCR4 inhibitors were administered once a day for 4 weeks.
Five week-old, female Balb/c-nu/nu mice were obtained from Envigo (France) and maintained in specific pathogen-free animal facility. All protocols for animal use and euthanasia were approved by the Qubest Bio (South Korea) Animal Experimental Ethics Committee based on the Animal Protection Act. […] The tumor growth was monitored every third or fourth day by measuring the length (L) and width (W) of the tumor with an electronic caliper and calculating tumor volume in the basis of the following formula: Volume=0.5 LW^2.
For the antitumor efficacy test using CXCR4 inhibitors, A549-CXCR4-ADRB2 cell line overexpressing CXCR4 and ADRB2 in A549, lung cancer cell line was subcutaneously administered (1×10^7 cell in 100 μL PBS/head) to BALB/c-nu. […] The tumor growth was monitored every third or fourth day by measuring the length (L) and width (W) of the tumor: Volume=0.5 LW^2.

ERK1/2 [8] = assay: Western blot of phospho-ERK1/2, MDA-MB-231 cell lines; type: cell-based, human; settings: for ERK1/2 activation, single agonist: MDA-MB-231 parent, MDA-MB-231-CXCR4 and MDA-MB-231-CXCR4-ADRB2 cells, data not shown
Method: MDA-MB-231 cells and A549 cells, expressing Rluc-luc2P or CXCR4, or containing CXCR4-ADRB2 heteromer, were seeded in 6 well plates at a density of 5×10^5 cells per well. […] Thereafter, each of the sets of cells were harvested and performed western blotting analysis.
Cells were seeded in 6 well plates at a density of 5×10^5 cells per well. […] Thereafter, the cells were harvested using NP-40 lysis buffer (Thermo Fisher Scientific, #FNN0021) supplemented with phosphatase inhibitor cocktail (Roche, #4906845001) and protease inhibitor cocktail (Thermo Fisher Scientific, #A32953). Proteins of cell lysates concentrations were determined by the Bio-Rad protein assay (Bio-Rad, #5000006). 20 μg of protein samples were subjected to reducing SDS-PAGE and transferred to PVDF (Polyvinylidene difluoride) using dry transfer system (Thermo Fisher Scientific, #IB21001). The membranes were blocked with 5% skim milk (BD Difco, #232100) in Tris-Buffered Saline with 1% Tween-twenty for 1 hour and incubated with phospho-ERK1/2 Thr202/Tyr204 (Cell Signaling Technology, #4370) and total-ERK1/2 (Cell Signaling Technology, #4695) antibodies. Antigen-antibody complexes were detected by incubating with horseradish peroxidase coupled secondary antibodies (Cell Signaling Technology) followed by SuperSignal West Femto Maximum Sensitivity Substrate (Thermo Fisher Scientific, #34096). Western blot images were captured and analyzed by iBright Western Blot Imaging System (Thermo Fisher Scientific, #A32752).

ERK1/2 [9] = assay: Western blot of phospho-ERK1/2, A549 cell lines; type: cell-based, human; settings: A549-CXCR4-ADRB2 cells; 10 nM each; 10 minutes
Method: Cells were seeded in 6 well plates at a density of 5×10^5 cells per well. […] Proteins of cell lysates concentrations were determined by the Bio-Rad protein assay (Bio-Rad, #5000006). 20 μg of protein samples were subjected to reducing SDS-PAGE and transferred to PVDF (Polyvinylidene difluoride) using dry transfer system (Thermo Fisher Scientific, #IB21001). […] Western blot images were captured and analyzed by iBright Western Blot Imaging System (Thermo Fisher Scientific, #A32752).

ADRB2 = biological target: T3, ADRB2 (Homo sapiens, UniProt P07550); assay: Calcium mobilization assay, MDA-MB-231 cells transduced with ADRB2 only; type: cell-based; settings: FIG. 5B; CXCL12 15 nM, salmeterol 100 nM
T3 construct: expressed in transfected cells; host or cells: MDA-MB-231 (adenoviral transduction)

CXCR4-ADRB2 heteromer [10] = biological target: T1, CXCR4-ADRB2 heteromer; assay: Internalization inhibition assay, CXCR4-GFP U-2 OS cells transduced with ADRB2; settings: FIG. 8; CXCL12 20 nM or antagonist 10 μM; 20 minutes
Method: To further study if co-internalization of CXCR4 heterodimer was blocked by partner GPCRx antagonists, internalization inhibition assay was performed. […] If CXCR4 formed heterodimer with GPCRx and co-internalized by partner GPCRx, it can be blocked by GPCRx specific antagonist.
Here, the GPCRx evaluated was ADRB2.

T2 sequence (P61073 whole entry): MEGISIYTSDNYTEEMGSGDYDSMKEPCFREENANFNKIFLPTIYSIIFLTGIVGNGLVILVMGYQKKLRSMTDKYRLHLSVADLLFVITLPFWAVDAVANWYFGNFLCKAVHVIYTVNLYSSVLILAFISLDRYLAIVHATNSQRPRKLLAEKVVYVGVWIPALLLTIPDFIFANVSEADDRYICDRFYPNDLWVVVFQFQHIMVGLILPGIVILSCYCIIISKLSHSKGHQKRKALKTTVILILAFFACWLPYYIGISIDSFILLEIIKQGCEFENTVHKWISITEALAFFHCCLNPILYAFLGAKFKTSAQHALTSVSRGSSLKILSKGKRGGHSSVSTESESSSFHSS

Compound: NCCCCN(Cc1nc2ccccc2[nH]1)[C@H]1CCCc2cccnc21 [AMD070]
- decrease of IC50 of Ca2+ response upon co-treatment of carvedilol, HL-60 (CXCR4-ADRB2 heteromer [1]): about 12.7 fold
- inhibition of tumor growth, co-administration with Carvedilol ([2]; AMD070 3 or 10 mg/kg with Carvedilol 30 mg/kg): effectively inhibited the growth of the tumor
- suppression of tumor growth, single administration [2]: limited suppression of tumor growth
- block of CXCL12 effect on cell proliferation (A549-CXCR4-ADRB2 cells [3]): blocked the CXCL12 effect

Compound: c1cc(CN2CCCNCCNCCCNCC2)ccc1CN1CCCNCCNCCCNCC1 [AMD3100, plerixafor]
- suppression of enhanced calcium signaling, co-administration with carvedilol (CXCR4-ADRB2 heteromer [4]; FIG. 6, AMD3100 10 μM with carvedilol 10 μM): greater suppression of the calcium signaling
- decrease of IC50 of Ca2+ response upon co-administration of Carvedilol (CXCR4-ADRB2 heteromer [4]): about 10.5 fold
- decrease of IC50 of Ca2+ response upon co-treatment of carvedilol, U937 (CXCR4-ADRB2 heteromer [5]; Carvedilol 10 μM): about 6.4 fold
- decrease of IC50 of Ca2+ response upon co-treatment of carvedilol, HL-60 (CXCR4-ADRB2 heteromer [1]): about 4.4 fold
- block of CXCL12 effect on cell proliferation (A549-CXCR4-ADRB2 cells [3]): blocked the CXCL12 effect

Compound: N=C(N)NCCC[C@H](NC(=O)[C@@H]1CSSC[C@H](NC(=O)[C@H](Cc2ccc3ccccc3c2)NC(=O)[C@H](CCCNC(=N)N)NC(=O)[C@H](CCCNC(=N)N)NC(=O)c2ccc(F)cc2)C(=O)N[C@@H](Cc2ccc(O)cc2)C(=O)N[C@@H](CCCNC(N)=O)C(=O)N[C@@H](CCCCN)C(=O)N[C@H](CCCCN)C(=O)N2CCC[C@H]2C(=O)N[C@@H](Cc2ccc(O)cc2)C(=O)N[C@@H](CCCNC(=N)N)C(=O)N[C@@H](CCCNC(N)=O)C(=O)N1)C(N)=O [BKT140] ({Benzoyl(4-F)}-RR[2Nal]CY[Cit]K[dK]PYR[Cit]CR-NH2; disulfide 4-13)
- IC50 (CXCR4; Table 4, cells expressing CXCR4 alone, CXCR4 inhibitor only, read-out: IC50 of Ca2+ response, CXCR4): 579 ± 204 nM
- IC50 (CXCR4-ADRB2 heteromer [4]; CXCR4 + ADRB2 (+Carvedilol 600 nM), co-treated with Carvedilol 600 nM (its IC90)): 1.94 nM
- IC50 (CXCR4-ADRB2 heteromer [4]; CXCR4 + ADRB2 (−Carvedilol 600 nM), CXCR4 inhibitor only): 88.7 nM
- decrease of IC50 of Ca2+ response upon co-administration of Carvedilol (CXCR4-ADRB2 heteromer [4]): about 45.7 fold
- block of CXCL12 effect on cell proliferation (A549-CXCR4-ADRB2 cells [3]): blocked the CXCL12 effect

Compound: COc1ccccc1OCCNCC(O)COc1cccc2[nH]c3ccccc3c12 (centres unmarked) [Carvedilol]
- IC50 [6]: 11700 nM
- suppression of tumor growth, single administration [2]: limited suppression of tumor growth

Compound: CC(C)NCCCC[C@H](NC(=O)[C@H]1CCC(=O)N[C@@H](Cc2ccccc2)C(=O)N[C@@H](Cc2ccc(O)cc2)C(=O)N[C@@H](CCCCNC(C)C)C(=O)N[C@H](CCCNC(=N)N)C(=O)N[C@@H](Cc2ccc3ccccc3c2)C(=O)NCC(=O)N1)C(N)=O [LY2510924] (FY[Lys(iPr)][dR][2Nal]G[dE][Lys(iPr)]-NH2; lactam N-7)
- death of mice (A549-CXCR4-ADRB2 cells [7]): 3 out of 10
- block of CXCL12 effect on cell proliferation (A549-CXCR4-ADRB2 cells [3]): blocked the CXCL12 effect

Compound: OCc1cc(C(O)CNCCCCCCOCCCCc2ccccc2)ccc1O (centres unmarked) [salmeterol, Salmeterol]
- ERK1/2 activation, co-stimulation with CXCL12 and salmeterol (ERK1/2 [8]; MDA-MB-231-CXCR4-ADRB2 cells, 10 nM each, 20 minutes): synergistically increased
- ERK1/2 activation, single agonist (ERK1/2 [8]): induced ERK activation after 20 minutes
- ERK1/2 phosphorylation, co-stimulation with CXCL12 and salmeterol (ERK1/2 [9]): significantly activated

Compound: CXCL12: C-X-C Motif Chemokine ligand 12, CXCR4 agonist
- calcium response, single agonist, cells expressing CXCR4 (CXCR4; FIG. 5A, CXCL12 15 nM, salmeterol 100 nM): evoked intracellular calcium mobilization
- EC50 (CXCR4; read-out: EC50 concentration against CXCR4): ~15 nM
- calcium response, single agonist, cells overexpressing ADRB2 alone (ADRB2): did not induced calcium response
- calcium response, single agonist, U937 (CXCR4-ADRB2 heteromer [5]; FIG. 26A, CXCL12 200 nM, formoterol 10 μM): evoked an intercellular calcium mobilization
- calcium response, single agonist, HL-60 (CXCR4-ADRB2 heteromer [1]; FIG. 26B, CXCL12 200 nM, formoterol 10 μM): evoked an intercellular calcium mobilization
- ERK1/2 activation, single agonist (ERK1/2 [8]): induced activation of ERK1/2 after 10 minutes
- increase of cell proliferation rate (A549-CXCR4-ADRB2 cells [3]; CXCL12 100 nM): about 20%
- internalization of CXCR4-GFP with ADRB2, substance alone (CXCR4-ADRB2 heteromer [10]): induced internalization of CXCR4-GFP with ADRB2
